Experimental data from publication PMC4047469 (Molecular & Cellular Proteomics : MCP, 2014).

Experiments:
DDR2 = target: T1, DDR2 (Homo sapiens, UniProt Q16832); experiment: autophosphorylation immunoblot; assay type: cell-based; conditions: 293T cells, collagen I 20 μg/ml, 120 min; E-3810 2, 8, 32 μM
T1 sequence (Q16832 22-855): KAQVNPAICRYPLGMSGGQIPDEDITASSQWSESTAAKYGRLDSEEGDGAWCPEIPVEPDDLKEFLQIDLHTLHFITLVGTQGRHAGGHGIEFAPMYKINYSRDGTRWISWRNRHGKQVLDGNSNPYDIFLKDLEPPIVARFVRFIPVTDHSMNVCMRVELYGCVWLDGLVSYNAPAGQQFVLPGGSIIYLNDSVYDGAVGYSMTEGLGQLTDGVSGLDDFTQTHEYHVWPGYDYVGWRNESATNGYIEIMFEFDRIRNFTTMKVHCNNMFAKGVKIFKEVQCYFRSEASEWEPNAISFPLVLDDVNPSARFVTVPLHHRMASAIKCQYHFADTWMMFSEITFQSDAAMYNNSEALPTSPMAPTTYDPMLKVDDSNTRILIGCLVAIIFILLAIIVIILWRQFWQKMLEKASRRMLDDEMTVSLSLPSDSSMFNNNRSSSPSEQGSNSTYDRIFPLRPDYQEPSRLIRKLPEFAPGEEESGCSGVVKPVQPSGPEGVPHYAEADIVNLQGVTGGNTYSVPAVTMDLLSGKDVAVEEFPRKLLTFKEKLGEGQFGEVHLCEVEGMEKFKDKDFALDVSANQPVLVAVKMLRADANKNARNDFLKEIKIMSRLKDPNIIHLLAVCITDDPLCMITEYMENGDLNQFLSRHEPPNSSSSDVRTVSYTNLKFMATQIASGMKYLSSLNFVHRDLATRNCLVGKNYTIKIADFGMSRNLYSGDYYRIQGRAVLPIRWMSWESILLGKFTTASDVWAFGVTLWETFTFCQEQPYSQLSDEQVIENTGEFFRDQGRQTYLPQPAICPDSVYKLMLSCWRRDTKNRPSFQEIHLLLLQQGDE

FGFR2 = FGFR2 (Homo sapiens, UniProt P21802); experiment: in vitro kinase assay; assay type: biochemical
SRC = SRC (Homo sapiens, UniProt P12931); experiment: radiometric filter-binding kinase assay; assay type: biochemical
Chain of SRC (P12931 2-536): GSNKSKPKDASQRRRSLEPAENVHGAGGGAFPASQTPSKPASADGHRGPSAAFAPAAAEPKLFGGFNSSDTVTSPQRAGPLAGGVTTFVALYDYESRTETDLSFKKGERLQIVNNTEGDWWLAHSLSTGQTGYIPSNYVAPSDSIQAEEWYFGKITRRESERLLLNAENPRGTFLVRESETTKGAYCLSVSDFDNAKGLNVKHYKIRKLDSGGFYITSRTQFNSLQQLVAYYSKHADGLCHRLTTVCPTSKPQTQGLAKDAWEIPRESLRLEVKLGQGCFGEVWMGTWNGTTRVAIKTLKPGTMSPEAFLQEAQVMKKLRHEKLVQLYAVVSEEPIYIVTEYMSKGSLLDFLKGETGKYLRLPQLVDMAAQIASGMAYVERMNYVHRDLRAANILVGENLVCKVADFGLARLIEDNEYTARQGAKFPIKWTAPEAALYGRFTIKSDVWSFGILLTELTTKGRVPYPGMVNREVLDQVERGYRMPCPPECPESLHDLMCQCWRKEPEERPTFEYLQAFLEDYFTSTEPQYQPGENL

Chain of FGFR2 (P21802 22-821): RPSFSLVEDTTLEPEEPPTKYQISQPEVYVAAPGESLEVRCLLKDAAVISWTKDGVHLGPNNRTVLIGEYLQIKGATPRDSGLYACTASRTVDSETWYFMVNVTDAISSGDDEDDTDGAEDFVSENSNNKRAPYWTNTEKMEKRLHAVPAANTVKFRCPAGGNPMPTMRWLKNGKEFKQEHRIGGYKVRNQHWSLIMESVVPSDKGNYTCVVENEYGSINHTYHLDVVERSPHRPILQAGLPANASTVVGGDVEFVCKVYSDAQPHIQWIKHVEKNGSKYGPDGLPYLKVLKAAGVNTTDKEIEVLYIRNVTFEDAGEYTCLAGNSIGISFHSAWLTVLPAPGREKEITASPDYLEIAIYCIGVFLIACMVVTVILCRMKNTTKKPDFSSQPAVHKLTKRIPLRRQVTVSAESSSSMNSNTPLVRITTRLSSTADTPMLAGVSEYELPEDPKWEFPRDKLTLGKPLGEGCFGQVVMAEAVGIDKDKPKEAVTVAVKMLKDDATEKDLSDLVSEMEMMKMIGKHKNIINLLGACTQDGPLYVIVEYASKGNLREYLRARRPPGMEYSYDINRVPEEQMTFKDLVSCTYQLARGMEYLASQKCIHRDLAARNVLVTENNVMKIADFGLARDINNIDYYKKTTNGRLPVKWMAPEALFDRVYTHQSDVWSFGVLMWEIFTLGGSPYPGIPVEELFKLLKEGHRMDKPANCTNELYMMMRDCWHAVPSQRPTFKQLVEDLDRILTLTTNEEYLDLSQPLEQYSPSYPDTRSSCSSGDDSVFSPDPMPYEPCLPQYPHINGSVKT

IC50 (FGFR2): 77 nM
Ki (SRC): > 50000 nM
SMILES: CNC(=O)c1cccc2cc(Oc3ccnc4cc(OCC5(N)CC5)c(OC)cc34)ccc12 [compound 1, E-3810]
autophosphorylation immunoblot (DDR2): increasing concentrations of E-3810 resulted in the reduction of DDR2 autophosphorylation
